In patent US20260285816A1, “Piperazinyl-Modified Quinazolinyl-Aryl Urea Derivative, And Preparation Method And Use Thereof” (Guangxi Normal University, priority 2025, published 2026):
Where two headings read alike, the source gives them in different places.

What was measured:
Assay type in all cases: cell-based, human
[1] = system: BxPC-3 cells; assay: CCK-8 anti-proliferative assay, BxPC-3; settings: Homo sapiens, BXPC-3, co-incubated 48 h, read-out: Anti-proliferative activity (IC50 ± standard deviation) BxPC-3
In short: (§1)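 Logarithmic-phase cells are plated at 5,000 cells per well and incubated at 37° C. with 5% CO2. At 70% confluency, compound is added at nine final concentrations from 1 to 30 μM. After exposure, CCK-8 is added and OD at 450 nm measured to calculate IC50.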

[2] = system: 143B cells; assay: CCK-8 anti-proliferative assay, 143B; settings: Homo sapiens, 143B
In short: as §1

[3] = system: MG-63 cells; assay: CCK-8 anti-proliferative assay, MG-63; settings: Homo sapiens, MG-63
In short: as §1

[4] = system: embryonic lung fibroblasts (WI-38); assay: CCK-8 anti-proliferative assay, normal cells WI-38; settings: Homo sapiens, read-out: Anti-proliferative activity (IC50 ± standard deviation) WI-38
In short: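 Growth inhibition was measured by CCK-8 in human cells seeded at 5,000 per well and treated at 70% confluency. Compound exposure spanned 1, 2, 4, 6, 8, 12, 16, 24 and 30 μM for designated durations at 37° C. Percent inhibition against vehicle control at OD 450 nm yielded median inhibitory concentrations.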

[5] = system: MCF-7 cells; assay: CCK-8 anti-proliferative assay, MCF-7; settings: Homo sapiens, MCF7, co-incubated 48 h, read-out: Anti-proliferative activity (IC50 ± standard deviation) MCF-7
In short: (§2)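 Anti-proliferative effect is measured by CCK-8 after compound exposure at nine final concentrations between 1 and 30 μM. Treatment starts once seeded cells (5,000/well) reach 70% confluency at 37° C., 5% CO2.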

[6] = system: J82 cells; assay: CCK-8 anti-proliferative assay, J82; settings: Homo sapiens, J82, co-incubated 48 h, read-out: Anti-proliferative activity (IC50 ± standard deviation) J82
In short: as §2

[7] = system: UM-UC-3 cells; assay: CCK-8 anti-proliferative assay, UM-UC-3; settings: Homo sapiens, UMUC3, co-incubated 48 h, read-out: Anti-proliferative activity (IC50 ± standard deviation) UM-UC-3
In short: as §2

[8] = system: SK-OV-3 cells; assay: CCK-8 anti-proliferative assay, SK-OV-3; settings: Homo sapiens, SK-OV-3, co-incubated 48 h, read-out: Anti-proliferative activity (IC50 ± standard deviation) SK-OV-3
In short: as §2

[9] = system: immortalized ureteral epithelial cells (SV-HUC-1); assay: CCK-8 anti-proliferative assay, normal cells SV-HUC-1; settings: Homo sapiens, SV-HUC1, normal cells, co-incubated 48 h, read-out: Anti-proliferative activity (IC50 ± standard deviation) SV-HUC-1
In short: as §2

[10] = system: PANC-1 cells; assay: CCK-8 anti-proliferative assay, PANC-1; settings: Homo sapiens, PANC-1, co-incubated 48 h, read-out: Anti-proliferative activity (IC50 ± standard deviation) PANC-1
In short: as §1

[11] = system: A549 cells; assay: CCK-8 anti-proliferative assay, A549; settings: Homo sapiens, A549, co-incubated 48 h, read-out: Anti-proliferative activity (IC50 ± standard deviation) A549
In short: as §2

[12] = system: T24 cells; assay: CCK-8 anti-proliferative assay, T24; settings: Homo sapiens, T-24, co-incubated 48 h, read-out: Anti-proliferative activity (IC50 ± standard deviation) T24
In short: as §1

[13] = system: Hep G2 cells; assay: CCK-8 anti-proliferative assay, Hep G2; settings: Homo sapiens, HepG2, co-incubated 48 h, read-out: Anti-proliferative activity (IC50 ± standard deviation) Hep G2
In short: as §1

[14] = system: HeLa cells; assay: CCK-8 anti-proliferative assay, HeLa; settings: Homo sapiens, HeLa, co-incubated 48 h, read-out: Anti-proliferative activity (IC50 ± standard deviation) HeLa
In short: as §2

[15] = system: 5637 cells; assay: CCK-8 anti-proliferative assay, 5637; settings: Homo sapiens, co-incubated 48 h, read-out: Anti-proliferative activity (IC50 ± standard deviation) 5637
In short: as §2

[16] = Table 11, co-incubated 48 h, read-out: Anti-proliferative activity (IC50 ± standard deviation) 143B
[17] = Table 11, co-incubated 48 h, read-out: Anti-proliferative activity (IC50 ± standard deviation) MG-63
[18] = WI-38, Table 13, co-incubated 48 h
[19] = Table 7, co-incubated 48 h, read-out: Anti-proliferative activity (IC50 ± standard deviation) 143B
[20] = Table 7, co-incubated 48 h, read-out: Anti-proliferative activity (IC50 ± standard deviation) MG-63
[21] = WI-38, Table 9, co-incubated 48 h

| SMILES | IC50 ([1]; Table 11) | IC50 [2, 16] | IC50 [3, 17] | IC50 [4, 18] | IC50 ([5]; Table 12) | IC50 ([6]; Table 10) | IC50 ([7]; Table 10) | IC50 ([8]; Table 12) | IC50 ([9]; Table 13) | IC50 ([10]; Table 11) | IC50 ([11]; Table 13) | IC50 ([12]; Table 10) | IC50 ([13]; Table 12) | IC50 ([14]; Table 12) | IC50 ([15]; Table 10) | IC50 ([1]; Table 7) | IC50 [2, 19] | IC50 [3, 20] | IC50 [4, 21] | IC50 ([5]; Table 8) | further results |
| --- | --- | --- | --- | --- | --- | --- | --- | --- | --- | --- | --- | --- | --- | --- | --- | --- | --- | --- | --- | --- | --- |
| COc1cc2ncnc(NCc3cccc(NC(=O)Nc4ccc(C(F)(F)F)cc4)c3)c2cc1OCCCCCCN1CCC(CN2CCN(c3ccccn3)CC2)CC1 [Compound 8-2t, N-(3-(((7-methoxy-6-((6-(4-((4-(pyridin-2-yl)piperazin-1-yl)methyl)piperidin-1-yl)hexyl)oxy)quinazolin-4-yl)amino)methyl)phenyl)-N′-(4-(trifluoromethyl)phenyl)urea] | 11.3 ± 0.73 µM | 9.42 ± 0.56 µM | 11.7 ± 0.92 µM | 10.6 ± 0.64 µM | 5.94 ± 0.36 µM | 5.46 ± 0.41 µM | 6.79 ± 0.41 µM | 13.3 ± 0.84 µM | 8.92 ± 0.49 µM | 15.6 ± 0.93 µM | 11.8 ± 0.88 µM | 6.47 ± 0.25 µM | 4.76 ± 0.45 µM | 7.29 ± 0.24 µM | 7.32 ± 0.57 µM | – | – | – | – | – | – |
| COc1cc2ncnc(NCc3cccc(NC(=O)Nc4ccc(Cl)c(Cl)c4)c3)c2cc1OCCCCCCN1CCN(CCN2CCOCC2)CC1 [Compound 8-1o, N-(3-(((7-methoxy-6-((6-(4-(2-morpholinoethyl)piperazin-1-yl)hexyl)oxy)quinazolin-4-yl)amino)methyl)phenyl)-N′-(3,4-dichlorophenyl)urea] | – | – | – | – | – | – | – | – | – | – | – | – | – | – | – | 7.73 ± 0.82 µM | 5.99 ± 0.43 µM | 5.89 ± 0.47 µM | 9.93 ± 0.53 µM | 9.33 ± 0.71 µM | IC50 ([6]; Table 6): 6.88 ± 0.49 µM; IC50 ([7]; Table 6): 5.84 ± 0.53 µM; IC50 ([8]; Table 9): 9.34 ± 0.98 µM; IC50 ([9]; Table 9): 10.7 ± 0.51 µM; IC50 ([10]; Table 7): > 30 µM; IC50 ([11]; Table 8): 11.8 ± 0.63 µM; IC50 ([12]; Table 6): 7.31 ± 0.55 µM; IC50 ([13]; Table 8): 6.83 ± 0.52 µM; IC50 ([14]; Table 8): 12.4 ± 0.89 µM; IC50 ([15]; Table 6): 5.34 ± 0.39 µM |
| COc1cc2ncnc(NCc3cccc(NC(=O)Nc4ccccc4Cl)c3)c2cc1OCCCCCCN1CCC(CN2CCN(c3ccccn3)CC2)CC1 [Compound 8-2o, N-(3-(((7-methoxy-6-((6-(4-((4-(pyridin-2-yl)piperazin-1-yl)methyl)piperidin-1-yl)hexyl)oxy)quinazolin-4-yl)amino)methyl)phenyl)-N′-(2-chlorophenyl)urea] | 22.4 ± 1.27 µM | 13.8 ± 0.82 µM | 9.92 ± 0.82 µM | 12.7 ± 0.89 µM | 16.2 ± 1.07 µM | 16.7 ± 1.52 µM | 15.9 ± 0.95 µM | 11.9 ± 0.94 µM | 16.2 ± 0.84 µM | > 30 µM | 27.2 ± 2.04 µM | 7.93 ± 0.22 µM | 16 ± 0.96 µM | 13.7 ± 1.29 µM | 12.4 ± 0.89 µM | – | – | – | – | – | – |
| COc1cc2ncnc(NCc3cccc(NC(=O)Nc4ccc(C(C)C)cc4)c3)c2cc1OCCCCCCN1CCN(CCN2CCOCC2)CC1 [Compound 8-1i, N-(3-(((7-methoxy-6-((6-(4-(2-morpholinoethyl)piperazin-1-yl)hexyl)oxy)quinazolin-4-yl)amino)methyl)phenyl)-N′-(4-isopropylphenyl)urea] | – | – | – | – | – | – | – | – | – | – | – | – | – | – | – | 13.3 ± 1.05 µM | 9.31 ± 0.97 µM | 11.1 ± 0.95 µM | 20.3 ± 1.63 µM | 11.5 ± 0.76 µM | IC50 ([6]; Table 6): 22.4 ± 1.82 µM; IC50 ([7]; Table 6): 10 ± 0.52 µM; IC50 ([8]; Table 9): 7.68 ± 0.55 µM; IC50 ([9]; Table 9): 19.3 ± 1.39 µM; IC50 ([10]; Table 7): 14.4 ± 0.67 µM; IC50 ([11]; Table 8): 16 ± 0.64 µM; IC50 ([12]; Table 6): 16.3 ± 0.81 µM; IC50 ([13]; Table 8): 10.6 ± 0.89 µM; IC50 ([14]; Table 8): 14.1 ± 0.89 µM; IC50 ([15]; Table 6): 10.3 ± 0.97 µM |
| COc1cc2ncnc(NCc3cccc(NC(=O)Nc4ccc(Cl)c(C(F)(F)F)c4)c3)c2cc1OCCCCCCN1CCC(CN2CCN(c3ccccn3)CC2)CC1 [Compound 8-2v] | 14.9 ± 1.28 µM | 6.84 ± 0.59 µM | 8.02 ± 0.79 µM | 8.71 ± 0.52 µM | 4.41 ± 0.27 µM | 11.1 ± 0.69 µM | 6.77 ± 0.69 µM | 5.49 ± 0.63 µM | 7.33 ± 0.46 µM | 14.9 ± 0.79 µM | 7.98 ± 0.92 µM | 4.73 ± 0.42 µM | 4.97 ± 0.35 µM | 6.98 ± 0.83 µM | 11.8 ± 0.95 µM | – | – | – | – | – | – |
| COc1cc2ncnc(NCc3cccc(NC(=O)NC4CCCCC4)c3)c2cc1OCCCCCCN1CCC(CN2CCN(c3ccccn3)CC2)CC1 [Compound 8-2z, N-(3-(((7-methoxy-6-((6-(4-((4-(pyridin-2-yl)piperazin-1-yl)methyl)piperidin-1-yl)hexyl)oxy)quinazolin-4-yl)amino)methyl)phenyl)-N′-cyclohexylurea] | 10.3 ± 0.93 µM | 4.77 ± 0.26 µM | 4.05 ± 0.34 µM | 10.9 ± 0.59 µM | 6.32 ± 0.49 µM | 3.93 ± 0.22 µM | 3.71 ± 0.19 µM | 8.69 ± 0.72 µM | 8.02 ± 0.81 µM | 14.9 ± 0.98 µM | 11.1 ± 0.83 µM | 5.33 ± 0.52 µM | 5.23 ± 0.52 µM | 6.39 ± 0.68 µM | 3.96 ± 0.19 µM | – | – | – | – | – | IC50 ([2]; read-out: IC50 values, osteosarcoma cells 143B): < 5 µM; IC50 ([3]; read-out: IC50 values, osteosarcoma cells MG-63): < 5 µM |
